Results on 1 substance are retold here after patent publication US20230190887A1, “TARGETING G3BP AGGREGATION TO PREVENT NEURODEGENERATION” (priority 2019, published 2023).

One assay concerns E18 cortical neurons. The experiment in a line: Aβ-induced neurite degeneration of cortical neurons. The settings on record: DIV7 E18 cortical neurons, 1 μM Aβ oligomer 16-18 hours, with 10 μM peptide. It counts as cell-based, rat. The protocol:
To test whether the triggering disassembly of stress granules would be protective in Parkinson's and Alzheimer's disease, the inventors employed 1-methyl-4-phenylpyridinium (MPP+)-induced and amyloid β (Aβ)-mediated neurotoxicity models. Rat embryonic day 18 (E18) midbrain neurons cultured for 7 days were treated for 16-18 hours with 100 μM MPP+, see FIGS. 1A and B, while E18 cortical neurons were treated with 1 μM Aβ oligomer, see FIGS. 2A-2B, with or without 10 μM G3BP1 190-208 or 168-189 peptide. As a control, the inventors used non-treated neurons.
FIG. 2: Cell permeable G3BP1 190-208 peptide blocks pathological degeneration beta-amyloid-induced neurotoxicity in cortical neurons. (A) Representative images of NF-labeled (white) E18 cortical neurons. DIV7 cortical neurons were treated with […] (ii) or control (i) and 10 μM 190-208 G3BP1 peptide (iv) or 10 μM 168-189 control peptide (iii) [scale bar=100 μm]. (B) Quantitation of degeneration in cortical neurons treated with 1 μM Aβpeptide-treated neurons after addition of 190-208 G3BP1 or 168-189 control peptide. Solvent treated cells were used as control. […] (N≥95 over 3 cultures; by one-way ANOVA with Tukey HSD post-hoc).

A further assay deals with E12.5 motor neurons. The assay can be described thus: MPP+-induced degeneration of motor neuron neurites (in vitro ALS model). The format is cell-based, mouse. The following applies: DIV7 E12.5 motor neurons, 100 μM MPP+ 16-18 hours, with 10 μM peptide. The protocol:
Non-treated cultures were used as controls (FIG. 3A).
(A) Quantification of mitotoxin/neurotoxin MPP+-induced degeneration of DIV7 E12.5 motor neuron neurites after exposure of cultures to 100 μM MPP+ and either 10 μM 190-208 G3BP1 or 168-189 control peptide. As controls, neurons treated with solvents were used. (B) Representative images of G3BP1 (green) and NF-labeled (red) E12.5 motor neurons under control or after treatment with 100 μM MPP+ [scale bar=10 μm]. (C) distribution of sizes of endogenous G3BP1 aggregate per 100 μm neurite is shown as indicated bins from motor neurons cultures as treated in (B). (N≥80 neurites over three repetitions; by one-way ANOVA with Tukey HSD post-hoc). […] (D) Endogenous G3BP1 aggregate sizes per 100 μm neurite indicated as bins for motor neurons either untreated or treated with MPP+ alone or with addition of 10 μM 190-208 G3BP1 or 168-189 control peptide. […] (N≥90 over 3 cultures; by one-way ANOVA with Tukey HSD post-hoc)

The test system of assay [1] is GFP^MYR/mCh^MYR translation reporters in DRG axons. The experiment in a line: FRAP of axonal translation reporters. It counts as cell-based, rat. The following applies: 10 μM peptide 30 min. The protocol:
Fluorescence recovery after photobleaching (FRAP). FRAP was used to test for axonal mRNA protein synthesis using diffusion-limited GFP^MYR and mCherry^MYR reporters as described with minor modifications. In each case, DRG neurons were co-transfected with GFP^MYR 5′/3′nrn1+mCherry^MYR 5′/3′gap43 or GFP^MYR 5′/3′impβ1+mCherry^MYR5′/3′gap43 so that recovery of both reporters could be analyzed simultaneously. Cells were maintained at 37° C., 5% CO2 during imaging sequences. 488 nm and 514 nm laser lines on Leica SP8X confocal microscope were used to bleach GFP and mCherry signals, respectively (Argon laser at 70% power, pulsed every 0.82 s for 80 frames). Pinhole was set to 3 Airy units to ensure full thickness bleaching and acquisition (63×/1.4 NA oil immersion objective). Prior to photobleaching, neurons were imaged every 60 s for 2 min to acquire baseline fluorescence the region of interest (ROI; 15% laser power, 498-530 nm for GFP and 565-597 nm for mCherry emissions, respectively). The same excitation and emission parameters were used to assess recovery over 15 min post-bleach with images acquired at 30 s intervals. To determine if fluorescence recovery in axons was from translation, cultures were treated with 150 μg/ml cycloheximide (Sigma) or 100 μm anisomycin (Sigma) for 30 min prior to photobleaching for GFP^MYR 5′/3′nrn1+mCherry^MYR 5′/3′gap43 and GFP^MYR 5′/3′impβ1+mCh^MYR 5′/3′gap43 transfected DRGs, respectively. […] Photobleaching followed by analyses of recovery was performed after 30 min of peptide exposure.
For normalizing across experiments, fluorescence intensity value at t=0 min postbleach from each image sequence was set as 0%. The percentage of fluorescence recovery at each time point after photobleaching was then calculated by normalizing relative to the pre-bleach fluorescence intensity (set at 100%).

For assay [2], the system named is G3BP1-mCherry aggregates in DRG axons. The experiment in a line: Live cell imaging of G3BP1-mCherry granules. The settings on record: 10 μM peptide, 15 min. It counts as cell-based, rat. The protocol: Live cell imaging for G3BP1-mCherry granules. DRG neurons were transfected with G3BP1-mCherry, and 36 h later distal axons were imaged using Leica SP8X confocal microscope with environmental chamber maintained at 37° C., 5% CO2 (with 63×/1.4 NA oil immersion objective). G3BP1-mCherry signals were imaged as single optical planes in the axon shaft every 2 s for 100 frames (at 540 nm excitation and 23% white light laser power; 565-597 nm emission). To study the effect of the G3BP1 190-208 or 168-189 peptide, 10 μM FITC-conjugated peptide was added to the media and 15 min later imaging was continued.
For quantitation of G3BP1-mCherry aggregates density and size, a 100 μm of the axon shaft was considered (≥200 μm from cell body). Thresholding was applied to acquired image sequences using ImageJ to generate binary masks.
ImageJ particle analyzer was used for analysis. G3BP1 aggregates with area≥1 μm^2 were considered as SG-like structures. For analyzing the G3BP1 aggregate velocity, ImageJ Trackmate plug-in was used.

In assay [3] the test system is axons of E18 cortical neurons. The experiment in a line: Aβ oligomer-mediated axon degeneration in microfluidic cultures. The settings on record: axons only exposed: Aβ oligomer 1 μM for 16 hours ± 190-208 G3BP1 peptide 1 μM. It counts as cell-based. The protocol: To test whether the cell permeable G3BP1 190-208 peptide protects against this early axonal degeneration, the current disclosure exposed only the axons of E18 cortical neuron cultures to Aβ peptide using microfluidic cultures (FIG. 16A). […] Thus, the cell permeable G3BP1 190-208 peptide protects axons from the neurotoxic effects of Aβ oligomers through axon intrinsic mechanisms.
E18 cortical neurons were plated into the cell-body compartment (blue); after 7 DIV axons from these neurons extend through the microchannels into the axon compartment (pink). […] Yellow line indicates the exit of the axons from the microchannels.

Entries after “also recorded” stand apart in the source; their conditions may differ.

As to “YGNKKNNNQNNN-VVEPEPEPEPEPEPEPVSE [G3BP1 190-208 peptide]”, in the assay with E18 cortical neurons (listed as 190-208 peptide), the neurite degeneration entry is on record as “significant rescue from Aβ-induced neurite degeneration”. Further, the neurite degeneration entry in the assay on E18 cortical neurons (listed as G3BP1 190-208) is recorded as “prevented neurite degeneration”. Further, in the assay on E12.5 motor neurons, the “MPP+-induced degeneration of motor neuron neurites” value is listed as “prevents mitotoxin-induced degeneration”. Also, the “MPP+-induced degeneration of motor neuron neurites” value in the assay on E12.5 motor neurons (listed as G3BP1 190-208) is recorded as “protected against MPP+-induced degeneration”. Also, the “axonal translation of GFP^MYR 5′/3′nrn1” value in assay [1] (G3BP1 overexpression (G3BP1-BFP)) is listed as “reversed the decrease in axonal translation; also recorded: increased”. Further, the “axonal translation of GFP^MYR 5′/3′impβ1” value in assay [1] (G3BP1 overexpression) is “did not rescue the decline in axonal translation”. Besides, in assay [1] (control conditions), the “GFP^MYR 5′/3′impβ1 translation in axons” value is on record as “lack of effect” and the “mCh^MYR 5′/3′gap43 translation in axons” value is “lack of effect”. In addition, in assay [2], the “density of axonal G3BP1-mCherry aggregates along 100 μm axon” value is “striking decrease”, the “motility of remaining G3BP1-mCherry aggregates” value is “greater motility” and the “size of G3BP1-mCherry aggregates (SG-like structures)” value was “significantly smaller”. Besides, the axon degeneration result in assay [3] was “near completely prevented this axon degeneration; also recorded: rescues amyloid beta oligomer-mediated axonal degeneration”.
